One test concerns the target Dipeptidyl peptidase 4 (Homo sapiens, UniProt P27487). The test is described as follows: In vitro for inhibition of Dipeptidylpeptidase IV.
In test [1] the target is T1, Prolyl endopeptidase (Homo sapiens) (UniProt P48147).
T1 sequence (whole entry): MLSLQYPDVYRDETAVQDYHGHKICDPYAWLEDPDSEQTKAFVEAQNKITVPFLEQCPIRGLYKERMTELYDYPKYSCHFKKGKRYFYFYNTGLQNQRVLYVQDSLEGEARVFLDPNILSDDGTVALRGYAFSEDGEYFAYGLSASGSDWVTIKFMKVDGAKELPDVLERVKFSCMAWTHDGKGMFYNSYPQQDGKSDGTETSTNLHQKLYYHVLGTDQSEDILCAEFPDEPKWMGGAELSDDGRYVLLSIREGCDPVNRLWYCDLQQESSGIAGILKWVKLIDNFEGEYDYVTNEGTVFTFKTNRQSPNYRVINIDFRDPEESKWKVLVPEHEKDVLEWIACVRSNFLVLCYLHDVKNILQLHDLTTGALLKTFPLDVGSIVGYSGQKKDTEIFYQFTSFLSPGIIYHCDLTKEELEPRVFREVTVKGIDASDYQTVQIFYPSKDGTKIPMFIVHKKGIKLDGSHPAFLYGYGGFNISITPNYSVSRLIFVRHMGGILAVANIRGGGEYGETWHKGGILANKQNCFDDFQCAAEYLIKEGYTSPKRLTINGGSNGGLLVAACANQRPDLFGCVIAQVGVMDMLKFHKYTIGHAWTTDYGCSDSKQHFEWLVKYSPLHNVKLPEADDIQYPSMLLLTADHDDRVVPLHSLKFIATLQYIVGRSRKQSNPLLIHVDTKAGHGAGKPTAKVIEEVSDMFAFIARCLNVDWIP
Briefly: (§1) Compound was tested in vitro for inhibition of Prolyl endopeptidase. As to conditions: concentration not given here.

The next test concerns the target Dipeptidyl peptidase 2 (Homo sapiens, UniProt Q9UHL4). The test is described as follows: Compound was tested in vitro for inhibition of Dipeptidylpeptidase II.
The target of the next test is T2, Prolyl endopeptidase (Homo sapiens, UniProt P48147).
T2 sequence (P48147 whole entry): T1 sequence (whole entry)
Described as §1.

Sequence of Dipeptidyl peptidase 4 (P27487 whole entry): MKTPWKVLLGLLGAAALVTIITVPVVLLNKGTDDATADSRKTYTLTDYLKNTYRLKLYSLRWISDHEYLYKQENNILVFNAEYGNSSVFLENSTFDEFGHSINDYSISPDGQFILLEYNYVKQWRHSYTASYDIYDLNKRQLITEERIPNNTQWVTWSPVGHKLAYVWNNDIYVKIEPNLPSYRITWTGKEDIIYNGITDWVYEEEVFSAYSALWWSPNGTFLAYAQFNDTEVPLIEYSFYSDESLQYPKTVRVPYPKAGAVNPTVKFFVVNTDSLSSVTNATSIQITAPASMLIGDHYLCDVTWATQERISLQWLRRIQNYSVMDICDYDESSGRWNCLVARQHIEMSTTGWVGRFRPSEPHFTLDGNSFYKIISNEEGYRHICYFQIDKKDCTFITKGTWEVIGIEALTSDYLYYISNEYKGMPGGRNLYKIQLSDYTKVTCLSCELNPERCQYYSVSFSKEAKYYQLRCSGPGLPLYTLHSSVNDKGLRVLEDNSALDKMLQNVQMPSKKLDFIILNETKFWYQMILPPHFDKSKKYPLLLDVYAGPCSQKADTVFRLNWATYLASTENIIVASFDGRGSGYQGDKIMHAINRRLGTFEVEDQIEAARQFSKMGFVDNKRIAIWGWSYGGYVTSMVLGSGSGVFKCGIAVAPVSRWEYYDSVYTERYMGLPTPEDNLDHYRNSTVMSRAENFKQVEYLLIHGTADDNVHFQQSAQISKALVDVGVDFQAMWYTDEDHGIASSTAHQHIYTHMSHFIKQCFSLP

`CC(C)(N)C(=O)N1CCC[C@H]1B(O)O`: on Dipeptidyl peptidase 4, the IC50 was found to be 30000 nM.
Consider `CC[C@H](C)[C@H](N)C(=O)N1CCC[C@H]1B(O)O`, for which half-maximal inhibition against Dipeptidyl peptidase 4 (IC50) was put at 25 nM.
`O=C([C@@H]1CCCN1)N1CCC[C@H]1B(O)O`: the concentration for half-maximal inhibition (IC50) against Dipeptidyl peptidase 4 turned out to be 20 nM; at Dipeptidyl peptidase 2 it was 770 nM. Further, the inhibition in test [1] came to 63%.
For `N[C@@H](Cc1c[nH]cn1)C(=O)N1CCC[C@H]1B(O)O`, on Dipeptidyl peptidase 4, the IC50 came out at 17000 nM.
For `NCC(=O)N1CCC[C@H]1B(O)O`, the IC50 on Dipeptidyl peptidase 4 is 16000 nM.
As to `N[C@H](C(=O)N1CCC[C@H]1B(O)O)c1ccccc1`, on Dipeptidyl peptidase 4, the IC50 is 63 nM.
Take `C[C@@H](O)[C@H](N)C(=O)N1CCC[C@H]1B(O)O`: the IC50 came to 190 nM on Dipeptidyl peptidase 4, 6000 nM against Prolyl endopeptidase and 730 nM against Dipeptidyl peptidase 2.
In turn, `O=C([C@@H]1CCN1)N1CCC[C@H]1B(O)O` returned an IC50 on Dipeptidyl peptidase 4 of 250 nM.
`NCCCC[C@H](N)C(=O)N1CCC[C@H]1B(O)O` gave an IC50 against Dipeptidyl peptidase 4 of 95 nM.
The same measure, in the same setting: to `N[C@@H](Cc1ccccc1)C(=O)N1CCC[C@H]1B(O)O` belongs 70 nM.
The compound `C[C@H](N)C(=O)N1CCC[C@H]1B(O)O` showed a concentration for half-maximal inhibition (IC50) on Dipeptidyl peptidase 2 of 60 nM.
On to `N[C@@H](Cc1ccc(O)cc1)C(=O)N1CCC[C@H]1B(O)O`, for which half-maximal inhibition against Dipeptidyl peptidase 4 (IC50) was put at 32 nM.
Still for that read-out and setting: to `CC(C)C[C@H](N)C(=O)N1CCC[C@H]1B(O)O` belongs 44 nM.

By IC50 is commonly meant the concentration at which inhibition is half-maximal. Read a low IC50 as inhibition by little substance. The term inhibition denotes how much of the control response was suppressed. A high value points to a strong effect.

Values taken from ChEMBL document CHEMBL1129318, “Structure-activity relationships of boronic acid inhibitors of dipeptidyl peptidase IV. 1. Variation of the P2 position of Xaa-boroPro dipeptides” (J Med Chem, 1996).
